Measurements as given in patent US9580390B2, “Indazole compounds as kinase inhibitors and method of treating cancer with same” (University Health Network, priority 2011, dated 2017).

Legend:
[1] = system: colon cancer cells (HCT116); assay: Cancer cell line growth inhibition (SRB assay); type: cell-based; conditions: Homo sapiens, HCT-116; read-out: Cancer Cell Line GI50 Range HCT116
ALK = target: T1, ALK (Homo sapiens, UniProt Q9UM73); assay: Panel of 270 human kinases (Millipore); type: biochemical
T1 construct: purchased Millipore Corporation
T1 sequence (Q9UM73 19-1620): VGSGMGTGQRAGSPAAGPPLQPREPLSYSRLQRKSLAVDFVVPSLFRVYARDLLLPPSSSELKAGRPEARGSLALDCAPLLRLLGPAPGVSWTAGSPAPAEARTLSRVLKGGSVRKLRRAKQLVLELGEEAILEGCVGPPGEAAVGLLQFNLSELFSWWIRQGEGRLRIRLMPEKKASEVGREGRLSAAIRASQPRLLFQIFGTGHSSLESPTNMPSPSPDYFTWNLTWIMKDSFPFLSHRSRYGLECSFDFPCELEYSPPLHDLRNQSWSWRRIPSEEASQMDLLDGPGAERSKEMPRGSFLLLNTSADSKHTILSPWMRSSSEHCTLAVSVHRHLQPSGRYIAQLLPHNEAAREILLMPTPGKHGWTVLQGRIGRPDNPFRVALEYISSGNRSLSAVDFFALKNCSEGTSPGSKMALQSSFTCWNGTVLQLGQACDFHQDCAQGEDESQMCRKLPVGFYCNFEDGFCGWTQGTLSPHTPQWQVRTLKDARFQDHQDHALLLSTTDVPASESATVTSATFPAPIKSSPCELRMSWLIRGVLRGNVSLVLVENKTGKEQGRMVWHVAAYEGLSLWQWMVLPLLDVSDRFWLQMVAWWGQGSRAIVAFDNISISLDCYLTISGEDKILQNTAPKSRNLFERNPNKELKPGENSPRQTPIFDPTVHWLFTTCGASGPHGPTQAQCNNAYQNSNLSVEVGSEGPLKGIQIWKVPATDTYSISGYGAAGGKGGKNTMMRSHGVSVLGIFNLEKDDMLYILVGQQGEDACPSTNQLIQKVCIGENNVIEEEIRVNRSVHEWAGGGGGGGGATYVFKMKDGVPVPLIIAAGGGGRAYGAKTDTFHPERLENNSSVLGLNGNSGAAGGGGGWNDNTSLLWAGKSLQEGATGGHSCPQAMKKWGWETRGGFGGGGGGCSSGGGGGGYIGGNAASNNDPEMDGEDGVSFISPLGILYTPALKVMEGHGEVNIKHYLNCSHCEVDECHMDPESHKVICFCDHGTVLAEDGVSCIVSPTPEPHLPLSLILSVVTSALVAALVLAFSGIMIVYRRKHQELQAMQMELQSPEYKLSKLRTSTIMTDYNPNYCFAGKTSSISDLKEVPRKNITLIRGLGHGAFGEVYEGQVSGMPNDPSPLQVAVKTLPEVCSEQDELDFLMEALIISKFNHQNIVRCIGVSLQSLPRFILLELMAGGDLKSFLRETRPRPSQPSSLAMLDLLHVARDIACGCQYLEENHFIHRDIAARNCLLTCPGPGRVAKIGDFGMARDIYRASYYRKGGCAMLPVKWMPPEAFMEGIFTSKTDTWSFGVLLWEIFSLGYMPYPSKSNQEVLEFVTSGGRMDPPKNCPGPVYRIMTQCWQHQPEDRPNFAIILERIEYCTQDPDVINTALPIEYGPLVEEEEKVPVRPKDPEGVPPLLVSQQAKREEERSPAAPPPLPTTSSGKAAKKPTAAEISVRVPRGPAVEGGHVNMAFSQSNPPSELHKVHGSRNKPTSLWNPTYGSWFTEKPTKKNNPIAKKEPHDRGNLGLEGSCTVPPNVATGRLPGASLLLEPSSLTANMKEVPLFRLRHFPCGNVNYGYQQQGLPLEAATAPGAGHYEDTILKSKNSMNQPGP
Description: (§1) The inhibitory activity of selected compounds of the invention (A335, A405, A410, A261, A300 and A363) was evaluated against a panel of 270 different human kinase enzymes by Millipore Corporation. The % Inhibition was determined by the formula: % Inhibition=100×(1−(experimental value−background value)/(high activity control−background value)).

Met(Y1248C) = target: T2, Met(Y1248C) (Homo sapiens, UniProt P08581, Y1230C); assay: Panel of 270 human kinases (Millipore); type: biochemical
T2 construct: purchased Millipore Corporation
T2 sequence (P08581 25-1408 isoform P08581-2 Y1248C limits assumed): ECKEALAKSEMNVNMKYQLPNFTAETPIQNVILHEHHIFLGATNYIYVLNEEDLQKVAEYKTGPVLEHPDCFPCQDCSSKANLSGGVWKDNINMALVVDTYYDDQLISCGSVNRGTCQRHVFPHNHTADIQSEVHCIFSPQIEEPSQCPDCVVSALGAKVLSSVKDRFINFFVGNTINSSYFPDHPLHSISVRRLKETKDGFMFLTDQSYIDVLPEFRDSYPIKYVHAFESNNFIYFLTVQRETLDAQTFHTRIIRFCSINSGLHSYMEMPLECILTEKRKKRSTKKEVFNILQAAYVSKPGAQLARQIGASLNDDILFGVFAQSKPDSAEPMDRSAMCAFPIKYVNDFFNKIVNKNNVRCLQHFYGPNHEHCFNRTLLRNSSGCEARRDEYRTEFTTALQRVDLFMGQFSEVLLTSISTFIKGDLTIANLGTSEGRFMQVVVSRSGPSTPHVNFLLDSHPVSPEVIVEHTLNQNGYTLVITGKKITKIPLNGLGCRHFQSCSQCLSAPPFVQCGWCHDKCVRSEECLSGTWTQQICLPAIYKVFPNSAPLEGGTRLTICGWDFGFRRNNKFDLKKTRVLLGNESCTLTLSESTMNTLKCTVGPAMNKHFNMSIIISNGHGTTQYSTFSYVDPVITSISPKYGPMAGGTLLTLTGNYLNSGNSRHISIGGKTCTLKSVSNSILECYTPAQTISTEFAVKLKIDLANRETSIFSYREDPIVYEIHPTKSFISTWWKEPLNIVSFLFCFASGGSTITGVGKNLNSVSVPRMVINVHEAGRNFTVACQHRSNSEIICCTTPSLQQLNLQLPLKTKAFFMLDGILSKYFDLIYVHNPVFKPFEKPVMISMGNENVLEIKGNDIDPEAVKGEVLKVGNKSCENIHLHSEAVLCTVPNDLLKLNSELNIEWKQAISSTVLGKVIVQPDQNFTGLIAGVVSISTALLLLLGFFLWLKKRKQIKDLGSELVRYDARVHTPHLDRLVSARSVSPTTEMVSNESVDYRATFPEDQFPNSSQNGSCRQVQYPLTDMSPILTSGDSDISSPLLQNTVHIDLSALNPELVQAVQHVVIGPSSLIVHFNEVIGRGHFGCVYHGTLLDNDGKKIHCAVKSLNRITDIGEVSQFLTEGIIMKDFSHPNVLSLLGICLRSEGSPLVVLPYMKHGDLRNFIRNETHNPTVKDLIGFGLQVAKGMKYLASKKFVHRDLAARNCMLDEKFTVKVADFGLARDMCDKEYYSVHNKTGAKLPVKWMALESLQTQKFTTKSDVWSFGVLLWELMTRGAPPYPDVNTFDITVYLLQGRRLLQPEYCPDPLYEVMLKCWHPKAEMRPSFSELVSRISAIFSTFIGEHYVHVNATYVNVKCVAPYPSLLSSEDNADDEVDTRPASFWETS
Description: as §1

JNK3 = target: T3, JNK3 (Homo sapiens, UniProt P53779); assay: Panel of 270 human kinases (Millipore); type: biochemical
T3 construct: purchased Millipore Corporation
T3 sequence (P53779 whole entry): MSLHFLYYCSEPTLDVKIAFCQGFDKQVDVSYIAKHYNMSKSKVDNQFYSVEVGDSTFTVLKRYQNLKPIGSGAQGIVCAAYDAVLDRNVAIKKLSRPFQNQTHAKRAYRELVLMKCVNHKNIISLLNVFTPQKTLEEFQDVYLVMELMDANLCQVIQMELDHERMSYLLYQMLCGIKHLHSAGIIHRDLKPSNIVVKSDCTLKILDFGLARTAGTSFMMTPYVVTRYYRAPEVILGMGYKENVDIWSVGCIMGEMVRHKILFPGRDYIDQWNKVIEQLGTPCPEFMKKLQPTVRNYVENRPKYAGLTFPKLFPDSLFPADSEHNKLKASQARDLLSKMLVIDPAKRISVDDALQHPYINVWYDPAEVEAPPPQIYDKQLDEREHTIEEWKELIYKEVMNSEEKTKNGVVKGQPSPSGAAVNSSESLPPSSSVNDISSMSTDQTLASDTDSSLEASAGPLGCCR
Description: as §1

MELK = target: T4, MELK (Homo sapiens, UniProt Q14680); assay: Panel of 270 human kinases (Millipore); type: biochemical
T4 construct: purchased Millipore Corporation
T4 sequence (Q14680 whole entry): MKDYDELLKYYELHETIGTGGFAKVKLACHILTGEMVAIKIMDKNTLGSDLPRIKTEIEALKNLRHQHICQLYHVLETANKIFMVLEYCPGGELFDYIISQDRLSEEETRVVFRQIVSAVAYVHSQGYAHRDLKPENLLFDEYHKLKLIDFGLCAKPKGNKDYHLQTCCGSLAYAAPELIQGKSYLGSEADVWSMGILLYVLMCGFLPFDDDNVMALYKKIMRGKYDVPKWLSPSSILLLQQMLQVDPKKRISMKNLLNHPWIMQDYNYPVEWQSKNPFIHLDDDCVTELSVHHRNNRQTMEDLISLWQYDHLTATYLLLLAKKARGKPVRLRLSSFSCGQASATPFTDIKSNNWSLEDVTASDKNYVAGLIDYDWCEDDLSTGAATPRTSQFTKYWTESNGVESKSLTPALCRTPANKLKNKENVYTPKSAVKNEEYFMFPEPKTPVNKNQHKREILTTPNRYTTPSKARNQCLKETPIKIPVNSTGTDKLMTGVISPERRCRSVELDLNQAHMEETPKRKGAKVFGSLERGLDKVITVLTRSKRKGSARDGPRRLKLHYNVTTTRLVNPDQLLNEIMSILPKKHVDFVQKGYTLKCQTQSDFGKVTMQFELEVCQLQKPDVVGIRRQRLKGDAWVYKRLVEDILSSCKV
Description: as §1

MAPK2 = target: T5, MAPK2 (Homo sapiens, UniProt P28482); assay: Panel of 270 human kinases (Millipore); type: biochemical
T5 construct: purchased Millipore Corporation
T5 sequence (P28482 whole entry): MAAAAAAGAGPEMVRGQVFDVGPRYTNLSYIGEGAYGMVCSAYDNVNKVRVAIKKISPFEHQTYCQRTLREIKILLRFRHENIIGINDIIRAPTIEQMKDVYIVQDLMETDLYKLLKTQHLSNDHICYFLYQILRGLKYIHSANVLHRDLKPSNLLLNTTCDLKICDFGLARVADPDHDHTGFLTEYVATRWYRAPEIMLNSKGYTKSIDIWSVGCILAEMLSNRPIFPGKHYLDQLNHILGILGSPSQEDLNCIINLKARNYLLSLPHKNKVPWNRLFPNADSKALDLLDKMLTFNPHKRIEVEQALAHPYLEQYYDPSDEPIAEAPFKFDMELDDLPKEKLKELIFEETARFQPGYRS
Description: as §1

MUSK = target: T6, MUSK (Homo sapiens, UniProt O15146); assay: Panel of 270 human kinases (Millipore); type: biochemical
T6 construct: purchased Millipore Corporation
T6 sequence (O15146 24-869): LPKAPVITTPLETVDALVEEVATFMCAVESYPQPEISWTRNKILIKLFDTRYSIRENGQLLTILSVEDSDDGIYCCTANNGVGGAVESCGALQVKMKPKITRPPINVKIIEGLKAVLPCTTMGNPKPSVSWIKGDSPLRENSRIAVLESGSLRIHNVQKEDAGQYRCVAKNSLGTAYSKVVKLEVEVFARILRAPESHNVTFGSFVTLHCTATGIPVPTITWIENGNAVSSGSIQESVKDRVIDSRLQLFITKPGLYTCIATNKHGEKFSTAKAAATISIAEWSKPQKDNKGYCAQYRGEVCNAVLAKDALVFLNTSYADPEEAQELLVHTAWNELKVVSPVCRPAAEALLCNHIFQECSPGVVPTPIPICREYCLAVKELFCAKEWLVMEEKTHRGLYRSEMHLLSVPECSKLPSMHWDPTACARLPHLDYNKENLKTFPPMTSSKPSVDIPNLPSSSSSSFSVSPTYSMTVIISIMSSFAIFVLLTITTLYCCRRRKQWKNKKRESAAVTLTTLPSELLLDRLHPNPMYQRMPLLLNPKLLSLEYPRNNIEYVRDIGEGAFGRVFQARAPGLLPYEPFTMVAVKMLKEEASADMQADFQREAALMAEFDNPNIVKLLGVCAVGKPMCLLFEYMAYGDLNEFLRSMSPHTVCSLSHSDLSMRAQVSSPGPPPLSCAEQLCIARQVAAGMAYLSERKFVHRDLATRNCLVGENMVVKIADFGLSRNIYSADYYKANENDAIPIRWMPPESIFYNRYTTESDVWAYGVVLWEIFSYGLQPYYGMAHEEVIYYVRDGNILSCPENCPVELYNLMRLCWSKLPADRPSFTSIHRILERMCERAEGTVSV
Description: as §1

cKit (V560G) = target: T7, cKit (V560G) (Homo sapiens, UniProt P10721, V560G); assay: Panel of 270 human kinases (Millipore); type: biochemical
T7 construct: purchased Millipore Corporation
Description: as §1

Aurora-B = target: T8, Aurora-B (Homo sapiens, UniProt Q96GD4); assay: Panel of 270 human kinases (Millipore); type: biochemical
T8 construct: purchased Millipore Corporation
T8 sequence (Q96GD4 whole entry): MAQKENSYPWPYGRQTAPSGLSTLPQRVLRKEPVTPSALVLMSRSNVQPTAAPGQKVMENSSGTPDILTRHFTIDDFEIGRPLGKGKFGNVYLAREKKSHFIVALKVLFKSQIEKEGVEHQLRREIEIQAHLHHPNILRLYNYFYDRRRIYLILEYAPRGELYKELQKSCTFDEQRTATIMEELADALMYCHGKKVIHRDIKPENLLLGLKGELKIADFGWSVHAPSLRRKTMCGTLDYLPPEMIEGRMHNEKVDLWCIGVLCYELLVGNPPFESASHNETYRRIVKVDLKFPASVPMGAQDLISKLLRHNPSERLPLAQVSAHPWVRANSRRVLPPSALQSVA
Description: as §1

Compound	GI50 [1] [nM]	inhibition at 1 µM (ALK) [%]	inhibition at 1 µM (Met(Y1248C)) [%]	inhibition at 1 µM (JNK3) [%]	inhibition at 1 µM (MELK) [%]	inhibition at 1 µM (MAPK2) [%]	inhibition at 1 µM (MUSK) [%]	inhibition at 1 µM (cKit (V560G)) [%]	inhibition at 1 µM (Aurora-B) [%]
CC(C)C[C@@H](NC(=O)c1ccc2[nH]nc(-c3ccc(N4CCN(C5COC5)CC4)cc3)c2c1)c1ccccc1Cl [Example A300, (R)-N-(1-(2-chlorophenyl)-3-methylbutyl)-3-(4-(4-(oxetan-3-yl)piperazin-1-yl)phenyl)-1H-indazole-5-carboxamide]	< 100	0	40	48	51	5	54	76	69
CC(C)[C@H](NC(=O)c1ccc2[nH]nc(-c3ccc(OC4CC5CCC(C4)N5C4COC4)cc3)c2c1)c1ccccc1Cl (stereo partly drawn) [Example A335]	< 100	7	42	85	97	0	91	66	87
